In ChEMBL document CHEMBL1201862, “PubChem BioAssay data set” (2004):
The source made the active and inactive calls.

Columns and labels:
Type in all cases: functional
[1] = target: T1, Endoribonuclease toxin MazF (Escherichia coli K-12, UniProt P0AE70); assay: activation of MazEF endoribonuclease cleavage – biochemical, fluorescence, single-stranded RNA substrate, uHTS hits, dose response (AID 588481)
T1 sequence (P0AE70 whole entry): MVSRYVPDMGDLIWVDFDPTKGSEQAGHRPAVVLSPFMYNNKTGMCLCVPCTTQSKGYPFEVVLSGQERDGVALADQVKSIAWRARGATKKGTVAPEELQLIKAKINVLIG

[2] = target: T1, Endoribonuclease toxin MazF; assay: substrate-only fluorescence increase artefacts – biochemical, single-stranded RNase substrate, counter-screen for MazEF activator project, dose response (AID 588502)
Beta-galactosidase = Beta-galactosidase (Escherichia coli, UniProt Q8VNN2); assay: PubChem AID 485352
[3] = target: T2, Type-1 angiotensin II receptor (Homo sapiens, UniProt P30556); assay: antagonism of angiotensin II type 1 receptor – cell-based, uHTS hits, selectivity assay for APJ receptor antagonist project, dose response (AID 463214);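 also: antagonist potency against angiotensin II stimulated AT1 response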
T2 sequence (P30556 whole entry): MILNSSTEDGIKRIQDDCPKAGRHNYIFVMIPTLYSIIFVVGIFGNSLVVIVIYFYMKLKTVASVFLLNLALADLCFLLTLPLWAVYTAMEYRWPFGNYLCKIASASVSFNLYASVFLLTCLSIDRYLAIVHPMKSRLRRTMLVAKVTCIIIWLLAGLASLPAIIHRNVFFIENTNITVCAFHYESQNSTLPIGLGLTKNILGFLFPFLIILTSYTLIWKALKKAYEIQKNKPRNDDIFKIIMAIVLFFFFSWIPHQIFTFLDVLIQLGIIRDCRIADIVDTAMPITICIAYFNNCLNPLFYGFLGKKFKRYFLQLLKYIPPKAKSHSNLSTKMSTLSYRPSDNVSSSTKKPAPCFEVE

Beta-galactosidase, sequence (Q8VNN2 whole entry): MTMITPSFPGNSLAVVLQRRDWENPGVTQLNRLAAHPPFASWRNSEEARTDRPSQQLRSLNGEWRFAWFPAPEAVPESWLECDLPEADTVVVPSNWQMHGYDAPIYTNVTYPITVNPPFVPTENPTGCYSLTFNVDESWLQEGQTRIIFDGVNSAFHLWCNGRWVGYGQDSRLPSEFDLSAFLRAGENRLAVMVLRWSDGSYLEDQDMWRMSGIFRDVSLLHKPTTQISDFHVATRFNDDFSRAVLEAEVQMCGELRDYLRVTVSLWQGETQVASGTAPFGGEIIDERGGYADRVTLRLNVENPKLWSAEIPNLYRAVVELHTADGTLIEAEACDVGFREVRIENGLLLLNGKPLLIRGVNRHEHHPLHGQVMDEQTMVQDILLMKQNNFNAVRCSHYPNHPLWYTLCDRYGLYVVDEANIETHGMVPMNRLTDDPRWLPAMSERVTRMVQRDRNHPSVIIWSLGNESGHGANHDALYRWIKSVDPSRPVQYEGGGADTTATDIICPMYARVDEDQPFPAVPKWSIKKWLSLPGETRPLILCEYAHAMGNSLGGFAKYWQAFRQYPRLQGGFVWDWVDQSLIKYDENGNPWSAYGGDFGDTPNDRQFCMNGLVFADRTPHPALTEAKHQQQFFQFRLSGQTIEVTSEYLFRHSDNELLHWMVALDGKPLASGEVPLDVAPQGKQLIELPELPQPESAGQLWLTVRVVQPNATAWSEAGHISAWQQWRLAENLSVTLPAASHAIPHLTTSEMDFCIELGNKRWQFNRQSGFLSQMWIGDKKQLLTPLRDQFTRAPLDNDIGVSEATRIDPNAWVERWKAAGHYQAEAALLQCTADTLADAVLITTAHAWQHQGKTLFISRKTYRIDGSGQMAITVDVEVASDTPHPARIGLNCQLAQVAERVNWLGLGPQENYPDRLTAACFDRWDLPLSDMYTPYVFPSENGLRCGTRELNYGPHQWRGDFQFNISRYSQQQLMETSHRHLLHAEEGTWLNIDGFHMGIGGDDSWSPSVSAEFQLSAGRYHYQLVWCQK

| Structure (SMILES) | EC50 [1] | EC50 [2] | EC50 (Beta-galactosidase) | IC50 [3] |
| --- | --- | --- | --- | --- |
| Cc1cc(OCC(=O)NCc2ccc(S(N)(=O)=O)cc2)c2c3c(c(=O)oc2c1)CCC3 | > 99 µM (inactive) | > 99 µM (inactive) | – | – |
| O=C(CCC(=O)OCC(=O)c1cccc([N+](=O)[O-])c1)Nc1cccc(Cl)c1Cl | – | – | > 40 µM (inactive) | 34.2 µM (not active) |
